Measured values from publication PMC11620482, “Phase 1 drug-drug interaction study to assess the effect of CYP3A4 inhibition and pan-CYP induction on the pharmacokinetics and safety of fosmanogepix in healthy participants” (Antimicrobial Agents and Chemotherapy, 2024).
Like-named read-outs stand apart in the source and are kept apart here.

Tests used:
CYP3A4 = conditions: cited from earlier work
CYP2B6 = conditions: cited from earlier work
CYP2D6 = conditions: cited from earlier work
CYP2A6 = conditions: cited from earlier work
[1] = Plasma pharmacokinetics of MGX and FMGX (noncompartmental analysis), phase 1 fixed-sequence DDI study with itraconazole or rifampin; format: in vivo, human; conditions: for Vd: read-out: MGX Vz; for Tmax: median (range)
Procedure: In cohort 1, MGX plasma samples were collected at specified time points daily on days 1–4, once every 2 days on days 6–14, daily for 3 days from days 18 to 20, once every 2 days from days 21 to 29, and then on day 31, while itraconazole samples were collected at specified time points on days 19, 25, and 31. […] PK parameters were calculated using noncompartmental analysis from the plasma concentration-time data for MGX and FMGX. Primary PK parameters were maximum observed plasma concentration (Cmax), AUC from time 0 to infinity (AUC0-inf), and AUC up to time t (AUC0-t, where t was the last time point with concentrations above the lower limit of quantitation). […] Secondary PK parameters were time to attain Cmax (Tmax), AUC from time 0 to 23 hours (AUC0-23), terminal elimination half-life after the last dosing on the day (t1/2), clearance (CL), volume of distribution at terminal phase (Vz), and terminal phase rate constant after the last dosing on the day (λz).

human CYPs = conditions: cited from earlier work
CYP1A2 = conditions: cited from earlier work
CYP2C19 = conditions: cited from earlier work
[2] = tested on: recombinant human CYP (rCYP) enzymes; conditions: cited from earlier work
[3] = tested on: phosphatidylinositol glycan anchor biosynthesis class W (PIGW); set-up: method as in PMID 33105672, PMID 34626339; conditions: cited from earlier work
[4] = mice infected with C. albicans and C. glabrata; cited from earlier work
CYP2C8 = conditions: cited from earlier work
CYP2E1 = conditions: cited from earlier work
CYP2C9 = conditions: cited from earlier work

Nc1ncccc1-c1cc(Cc2ccc(COc3ccccn3)cc2)no1 [MGX, manogepix]
Reversible inhibition of CYP3A4 (CYP3A4): observed | Time-dependent inhibition of CYP3A4 (CYP3A4): weak time-dependent inhibition | Reversible inhibition of CYP2B6 (CYP2B6): observed | Time-dependent inhibition of CYP2B6 (CYP2B6): weak time-dependent inhibition | Reversible inhibition of CYP2D6 (CYP2D6): observed | Time-dependent inhibition of CYP2D6 (CYP2D6): no time-dependent inhibition | Time-dependent inhibition of CYP2A6 (CYP2A6): no time-dependent inhibition | MGX Vz ([1]; FMGX only 1000 mg BID IV, D1, Cohort 2, n = 17, geometric mean (geometric %CV)): 190 (40.8) L | AUC(0-inf) ([1]; human, in vivo, FMGX 500 mg BID IV D18 + ITR 200 mg QD PO D15-30, Cohort 1, n = 16, geometric mean (geometric %CV), read-out: MGX AUC(0-inf)): 458 µg·h/mL | AUC(0-t) ([1]; human, in vivo, FMGX 500 mg BID IV D18 + ITR 200 mg QD PO D15-30, Cohort 1, n = 16, geometric mean (geometric %CV), read-out: MGX AUC(0-t)): 421 µg·h/mL | Cmax ([1]; human, in vivo, FMGX 500 mg BID IV D18 + ITR 200 mg QD PO D15-30, Cohort 1, n = 16, geometric mean (geometric %CV), read-out: MGX Cmax): 7060 ng/mL | Vd ([1]; human, in vivo, FMGX 500 mg BID IV D18 + ITR 200 mg QD PO D15-30, Cohort 1, n = 16, geometric mean (geometric %CV)): 195 L | AUC(0-inf) ([1]; human, in vivo, FMGX 500 mg BID IV D18 + ITR 200 mg QD PO D15–30, Cohort 1, n = 16, read-out: MGX AUC(0-inf), least squares geometric mean): 458 µg·h/mL | AUC(0-t) ([1]; human, in vivo, FMGX 500 mg BID IV D18 + ITR 200 mg QD PO D15–30, Cohort 1, n = 16, read-out: MGX AUC(0-t), least squares geometric mean): 421 µg·h/mL | Cmax ([1]; human, in vivo, FMGX 500 mg BID IV D18 + ITR 200 mg QD PO D15–30, Cohort 1, n = 16, read-out: MGX Cmax, least squares geometric mean): 7060 ng/mL | AUC(0-inf) ([1]; human, in vivo, FMGX 1,000 mg BID IV D24 + RIF 600 mg QD PO D15–33, Cohort 2, n = 17, geometric mean (geometric %CV), read-out: MGX AUC(0-inf)): 450 µg·h/mL | AUC(0-t) ([1]; human, in vivo, FMGX 1,000 mg BID IV D24 + RIF 600 mg QD PO D15–33, Cohort 2, n = 17, geometric mean (geometric %CV), read-out: MGX AUC(0-t)): 436 µg·h/mL | Cmax ([1]; human, in vivo, FMGX 1,000 mg BID IV D24 + RIF 600 mg QD PO D15–33, Cohort 2, n = 17, geometric mean (geometric %CV), read-out: MGX Cmax): 12100 ng/mL | Vd ([1]; human, in vivo, FMGX 1,000 mg BID IV D24 + RIF 600 mg QD PO D15–33, Cohort 2, n = 17, geometric mean (geometric %CV)): 205 L | AUC(0-inf) ([1]; human, in vivo, FMGX 1,000 mg BID IV D24 + RIF 600 mg QD PO D15–33, Cohort 2, n = 17, read-out: MGX AUC(0-inf), least squares geometric mean): 450 µg·h/mL | AUC(0-t) ([1]; human, in vivo, FMGX 1,000 mg BID IV D24 + RIF 600 mg QD PO D15–33, Cohort 2, n = 17, read-out: MGX AUC(0-t), least squares geometric mean): 436 µg·h/mL | Cmax ([1]; human, in vivo, FMGX 1,000 mg BID IV D24 + RIF 600 mg QD PO D15–33, Cohort 2, n = 17, read-out: MGX Cmax, least squares geometric mean): 12100 ng/mL | half-life ([1]; human, in vivo, Terminal elimination half-life for MGX): ~78 h | AUC(0-inf) ([1]; human, in vivo, iv, 500 mg, FMGX only 500 mg BID IV, D1, Cohort 1, n = 16, geometric mean (geometric %CV), read-out: MGX AUC(0-inf)): 460 µg·h/mL | AUC(0-t) ([1]; human, in vivo, iv, 500 mg, FMGX only 500 mg BID IV, D1, Cohort 1, n = 16, geometric mean (geometric %CV), read-out: MGX AUC(0-t)): 429 µg·h/mL | Cmax ([1]; human, in vivo, iv, 500 mg, FMGX only 500 mg BID IV, D1, Cohort 1, n = 16, geometric mean (geometric %CV), read-out: MGX Cmax): 6940 ng/mL | Vd ([1]; human, in vivo, iv, 500 mg, FMGX only 500 mg BID IV, D1, Cohort 1, n = 16, geometric mean (geometric %CV)): 185 L | AUC(0-inf) ([1]; human, in vivo, iv, 500 mg, FMGX only 500 mg BID IV, D1, Cohort 1, n = 16, read-out: MGX AUC(0-inf), least squares geometric mean): 460 µg·h/mL | AUC(0-t) ([1]; human, in vivo, iv, 500 mg, FMGX only 500 mg BID IV, D1, Cohort 1, n = 16, read-out: MGX AUC(0-t), least squares geometric mean): 429 µg·h/mL | Cmax ([1]; human, in vivo, iv, 500 mg, FMGX only 500 mg BID IV, D1, Cohort 1, n = 16, read-out: MGX Cmax, least squares geometric mean): 6940 ng/mL | clearance ([1]; human, in vivo, iv, 500 mg, MGX CL): 27.7 mL/min | half-life ([1]; human, in vivo, iv, 500 mg, MGX t1/2): 77.3 h | MGX CL ([1]; human, in vivo, iv, 1000 mg): 1,862 (18.5) mL/h | AUC(0-inf) ([1]; human, in vivo, iv, 1000 mg, FMGX only 1000 mg BID IV, D1, Cohort 2, n = 17, geometric mean (geometric %CV), read-out: MGX AUC(0-inf)): 822 µg·h/mL | AUC(0-t) ([1]; human, in vivo, iv, 1000 mg, FMGX only 1000 mg BID IV, D1, Cohort 2, n = 17, geometric mean (geometric %CV), read-out: MGX AUC(0-t)): 772 µg·h/mL | Cmax ([1]; human, in vivo, iv, 1000 mg, FMGX only 1000 mg BID IV, D1, Cohort 2, n = 17, geometric mean (geometric %CV), read-out: MGX Cmax): 13900 ng/mL | AUC(0-inf) ([1]; human, in vivo, iv, 1000 mg, FMGX only 1,000 mg BID IV, D1, Cohort 2, n = 17, read-out: MGX AUC(0-inf), least squares geometric mean): 822 µg·h/mL | AUC(0-t) ([1]; human, in vivo, iv, 1000 mg, FMGX only 1,000 mg BID IV, D1, Cohort 2, n = 17, read-out: MGX AUC(0-t), least squares geometric mean): 772 µg·h/mL | Cmax ([1]; human, in vivo, iv, 1000 mg, FMGX only 1,000 mg BID IV, D1, Cohort 2, n = 17, read-out: MGX Cmax, least squares geometric mean): 13900 ng/mL | half-life ([1]; human, in vivo, iv, 1000 mg, MGX t1/2): 70.7 h | Tmax ([1]; human, in vivo, FMGX 500 mg BID IV D18 + ITR 200 mg QD PO D15-30, Cohort 1, n = 16): 12 h | Tmax ([1]; human, in vivo, FMGX only 500 mg BID IV, D1, Cohort 1, n = 16): 12 h | Tmax ([1]; human, in vivo, FMGX only 1000 mg BID IV, D1, Cohort 2, n = 17): 12 h | Reversible inhibition, other CYP isoforms (human CYPs): Weak or no inhibition | Reversible inhibition of CYP1A2 (CYP1A2): observed | Time-dependent inhibition of CYP1A2 (CYP1A2): no time-dependent inhibition | Reversible inhibition of CYP2C19 (CYP2C19): observed | Time-dependent inhibition of CYP2C19 (CYP2C19): no time-dependent inhibition | Enzymes involved in formation of MGX-derived metabolites [2]: multiple recombinant human CYP (rCYP) enzymes were involved | Inhibition of PIGW, closest mammalian ortholog of GWT1 [3]: not inhibited | Exposure (AUC) and half-life of MGX after pre-administration of 1-aminobenzotriazole [4]: increase | Reversible inhibition of CYP2C8 (CYP2C8): observed | Time-dependent inhibition of CYP2C8 (CYP2C8): no time-dependent inhibition | Time-dependent inhibition of CYP2E1 (CYP2E1): no time-dependent inhibition | Reversible inhibition of CYP2C9 (CYP2C9): observed | Time-dependent inhibition of CYP2C9 (CYP2C9): no time-dependent inhibition
